Measurements as given in ChEMBL document CHEMBL1914403 (J Med Chem, 2011).

Columns and labels:
[1] = Drug uptake in brain; assay type: ADME, tissue-based
Rattus norvegicus [2] = experiment: Volume of distribution at steady state in rat at 2 mg/kg, po; assay type: ADME, organism-based; parameters: dose 2 mg/kg, route oral; settings: in vivo
[3] = Oral bioavailability in rat at 2 mg/kg; assay type: ADME, organism-based; settings: in vivo
[4] = AUC in plasma of rat at 10 mg/kg, po; assay type: ADME, organism-based; parameters: dose 10 mg/kg, route oral
[5] = AUC in brain of rat at 10 mg/kg, po; assay type: ADME, organism-based; parameters: dose 10 mg/kg, route oral
Rattus norvegicus [6] = experiment: Volume of distribution at steady state in rat at […], po; assay type: ADME, organism-based; parameters: dose 2.5 mg/kg, route oral; settings: in vivo
[7] = Oral bioavailability in rat at […]; assay type: ADME, organism-based; settings: in vivo
Canis familiaris [8] = experiment: Volume of distribution at steady state in dog at […], po; assay type: ADME, organism-based, Canis lupus familiaris; parameters: dose 2.5 mg/kg, route oral; settings: in vivo
MDCK [9] = experiment: Apparent permeability across apical to basolateral side of dog MDCK cells expressing human MDR1; assay type: ADME, cell-based, Canis lupus familiaris
[10] = Oral bioavailability in dog at […]; assay type: ADME, organism-based, Canis lupus familiaris; settings: in vivo
MDCK [11] = experiment: Apparent permeability across basolateral to apical side of dog MDCK cells expressing human MDR1; assay type: ADME, cell-based, Canis lupus familiaris
Canis familiaris [12] = experiment: Volume of distribution at steady state in dog at 2 mg/kg, po; assay type: ADME, organism-based, Canis lupus familiaris; parameters: dose 2 mg/kg, route oral; settings: in vivo
[13] = Oral bioavailability in dog at 2 mg/kg; assay type: ADME, organism-based, Canis lupus familiaris; settings: in vivo
Rattus norvegicus [14] = experiment: Volume of distribution at steady state in rat at 0.1 mg/kg, po; assay type: ADME, organism-based; parameters: dose 0.1 mg/kg, route oral; settings: in vivo
Canis familiaris [15] = experiment: Volume of distribution at steady state in dog at 0.5 mg/kg, po; assay type: ADME, organism-based, Canis lupus familiaris; parameters: dose 0.5 mg/kg, route oral; settings: in vivo
[16] = Oral bioavailability in dog at 0.5 mg/kg; assay type: ADME, organism-based, Canis lupus familiaris; settings: in vivo
[17] = Oral bioavailability in rat at 0.1 mg/kg; assay type: ADME, organism-based; settings: in vivo

Row | Drug uptake [1] | SMILES | other results
1 | > 90% | COc1ccc2nc(C)c3c(C)nc(-c4ccccc4C)n3c2n1 | 
2 | > 90% | COc1ccc2nc(C)c3c(C)nc(-c4ccccc4C(F)(F)F)n3c2n1 | 
3 | > 90% | COc1ccc2nc(C)c3c(C)nc(-c4ccccc4Cl)n3c2n1 | 
4 | > 90% | COc1ccc2nc(C)c3c(C)nc(-c4cc(Cl)ccc4Cl)n3c2n1 | 
5 | > 90% | COc1ccc2nc(C)c3c(C)nc(-c4ccc(F)cc4Cl)n3c2n1 | 
6 | > 90% | COc1ccc2nc(C)c3c(C)nc(-c4ccccc4OC)n3c2n1 | 
7 | > 90% | COc1ccc2nc(C)c3c(C)nc(-c4ccccc4OC(F)(F)F)n3c2n1 | 
8 | > 90% | COc1ccc2nc(C)c3c(C)nc(-c4ccccc4C(N)=O)n3c2n1 | 
9 | > 90% | COc1ccc2nc(C)c3c(C(F)(F)F)nc(-c4ccccc4C)n3c2n1 | 
10 | > 90% | COc1ccc2nc(C)c3c(C(F)(F)F)nc(-c4ccccc4Cl)n3c2n1 | 
11 | > 90% | COc1ccc2nc(C)c3c(C(F)(F)F)nc(-c4cc(Cl)ccc4Cl)n3c2n1 | 
12 | > 90% | COc1ccc2nc(C)c3c(C(F)(F)F)nc(-c4ccc(F)cc4Cl)n3c2n1 | 
13 | > 90% | COc1ccc2nc(C)c3c(C(F)(F)F)nc(-c4cc(F)ccc4Cl)n3c2n1 | 
14 | > 90% | COc1ccc(Cl)c(-c2nc(C(F)(F)F)c3c(C)nc4ccc(OC)nc4n23)c1 | 
15 | > 90% | COc1ccc2nc(C(F)(F)F)c3c(C)nc(-c4ccccc4Cl)n3c2n1 | 
16 | > 90% | COc1ccc2nc(C(F)F)c3c(C)nc(-c4ccccc4Cl)n3c2n1 | 
17 | > 90% | COc1ccc2nc(C#N)c3c(C)nc(-c4ccccc4Cl)n3c2n1 | 
18 | > 90% | COc1ccc2nc(C)c3c(C)nc(-c4sccc4C)n3c2n1 | 
19 | > 90% | COc1ccc2nc(C)c3c(C)nc(-c4cccn4C)n3c2n1 | 
20 | > 90% | COc1ccc2nc(C)c3c(C)nc(-c4cn[nH]c4)n3c2n1 | 
21 | > 90% | COc1ccc2nc(C)c3c(C)nc(-c4c(C)n[nH]c4C)n3c2n1 | 
22 | > 90% | COc1ccc2nc(C)c3c(C)nc(-c4c(C)nn(C)c4C)n3c2n1 | Vdss (Rattus norvegicus [2]): 0.7 L/kg; bioavailability [3]: 67%; AUC [4]: 4130 ng·h/mL; AUC [5]: 2940 ng·h/mL
23 | > 90% | COc1ccc2nc(C)c3c(C)nc(-c4c(C)noc4C)n3c2n1 | 
24 | > 90% | COc1ccc2nc(C)c3c(C)nc(-c4sc(C)nc4C)n3c2n1 | 
25 | > 90% | COc1ccc2nc(C)c3c(C)nc(-c4cncnc4)n3c2n1 | 
26 | > 90% | COc1ccc2nc(C)c3c(C)nc(-c4cccnc4)n3c2n1 | 

Row | Drug uptake [1] | SMILES | other results
27 | > 90% | COc1ccc2nc(C)c3c(C)nc(-c4cccnc4C)n3c2n1 | 
28 | > 90% | COc1ccc2nc(C)c3c(C)nc(-c4cnccc4C)n3c2n1 | Vdss (Rattus norvegicus [6]): 1 L/kg; bioavailability [7]: 25%; AUC [4]: 747 ng·h/mL; AUC [5]: 866 ng·h/mL
29 | > 90% | COc1ccc2nc(C)c3c(C)nc(-c4ccc(C)nc4)n3c2n1 | 
30 | > 90% | COc1ccc2nc(C)c3c(C)nc(-c4cnccc4Cl)n3c2n1 | 
31 | > 90% | COc1ccc2nc(C)c3c(C)nc(-c4ccncc4C)n3c2n1 | 
32 | > 90% | COc1ccc2nc(C)c3c(C)nc(-c4ccncc4Cl)n3c2n1 | 
33 | > 90% | COc1ccc2nc(C)c3c(C)nc(-c4cccnc4OC)n3c2n1 | 
34 | > 90% | COc1ccc2nc(C)c3c(C)nc(-c4cnccc4OC)n3c2n1 | 
35 | > 90% | Cc1ccncc1-c1nc(C)c2c(C)nc3ccccc3n12 | 
36 | > 90% | Cc1ccncc1-c1nc(C)c2c(C)nc3ccc(F)cc3n12 | 
37 | > 90% | Cc1cnccc1-c1nc(C)c2c(C)nc3ccc(F)cc3n12 | 
38 | > 90% | Cc1ccccc1-c1nc(C)c2c(C)nc3ccc(F)cc3n12 | 
39 | > 90% | Cc1ccncc1-c1nc(C)c2c(C)nc3ccc(Cl)cc3n12 | 
40 | > 90% | Cc1cnccc1-c1nc(C)c2c(C)nc3ccc(Cl)cc3n12 | 
41 | > 90% | COc1ccc2nc(C)c3c(C)nc(-c4cnccc4C)n3c2c1 | 
42 | > 90% | Cc1ccncc1-c1nc(C)c2c(C)nc3ccc(OC(F)(F)F)cc3n12 | 
43 | > 90% | Cc1cnccc1-c1nc(C)c2c(C)nc3ccc(OC(F)(F)F)cc3n12 | 
44 | > 90% | Cc1ccncc1-c1nc(C)c2c(C)nc3ccc(C(F)(F)F)cc3n12 | 
45 | > 90% | Cc1cnccc1-c1nc(C)c2c(C)nc3ccc(C(F)(F)F)cc3n12 | 
46 | > 90% | Cc1ncccc1-c1nc(C)c2c(C)nc3ccc(C(F)(F)F)cc3n12 | 
47 | > 90% | Cc1ccncc1-c1nc(C)c2c(C)nc3c(F)cc(F)cc3n12 | 
48 | > 90% | Cc1cnccc1-c1nc(C)c2c(C)nc3c(F)cc(F)cc3n12 | 
49 | > 90% | COc1cc(F)cc2c1nc(C)c1c(C)nc(-c3cnccc3C)n12 | 
50 | > 90% | COc1cc(F)cc2c1nc(C)c1c(C)nc(-c3ccncc3C)n12 | Vdss (Canis familiaris [8]): 6 L/kg; Papp (MDCK [9]): permeable; Vdss (Rattus norvegicus [6]): 0.9 L/kg; bioavailability [10]: 73%; Papp (MDCK [11]): permeable; bioavailability [7]: 27%; AUC [4]: 3640 ng·h/mL; AUC [5]: 2370 ng·h/mL
51 | > 90% | COc1cc(F)cc2c1nc(C)c1c(C)nc(-c3cccnc3C)n12 | 
52 | > 90% | COc1cc(F)cc2c1nc(C)c1c(C)nc(-c3sc(C)nc3C)n12 | 

Row | Drug uptake [1] | SMILES | other results
53 | > 90% | COc1cc(F)cc2c1nc(C)c1c(C)nc(-c3c(C)nn(C)c3C)n12 | 
54 | > 90% | COc1cc(F)cc2c1nc(C)c1c(C)nc(-c3ccccc3C)n12 | 
55 | > 90% | Cc1ccccc1-c1nc(C)c2c(C)nc3c(OC(F)F)cc(F)cc3n12 | 
56 | > 90% | CCOc1cc(F)cc2c1nc(C)c1c(C)nc(-c3ccccc3C)n12 | 
57 | > 90% | Cc1ccccc1-c1nc(C)c2c(C)nc3c(OCC(F)(F)F)cc(F)cc3n12 | 
58 | > 90% | Cc1ccccc1-c1nc(C)c2c(C)nc3c(OCC4CC4)cc(F)cc3n12 | 
59 | > 90% | Cc1ccccc1-c1nc(C)c2c(C)nc3c(O)cc(F)cc3n12 | 
60 | > 90% | COc1cc(OC)c2nc(C)c3c(C)nc(-c4cnccc4C)n3c2c1 | Vdss (Rattus norvegicus [6]): 1.3 L/kg; Vdss (Canis familiaris [12]): 1.6 L/kg; bioavailability [7]: 25%; bioavailability [13]: 100%; AUC [4]: 8850 ng·h/mL; AUC [5]: 3280 ng·h/mL
61 | > 90% | COc1cc(OC)c2nc(C)c3c(C)nc(-c4ccncc4C)n3c2c1 | 
62 | > 90% | COc1cc(OC)c2nc(C)c3c(C)nc(-c4cccnc4C)n3c2c1 | 
63 | > 90% | COc1cc(N2CCOCC2)cc2c1nc(C)c1c(C)nc(-c3ccncc3C)n12 | 
64 | > 90% | COc1cc(N2CCOCC2)cc2c1nc(C)c1c(C)nc(-c3cccnc3C)n12 | 
65 | > 90% | COc1cc(OCc2ccccc2)cc2c1nc(C)c1c(C)nc(-c3cccnc3C)n12 | 
66 | > 90% | COc1cc(OC(F)F)cc2c1nc(C)c1c(C)nc(-c3cccnc3C)n12 | Vdss (Rattus norvegicus [14]): 0.6 L/kg; Vdss (Canis familiaris [15]): 1.1 L/kg; bioavailability [16]: 84%; bioavailability [17]: 83%; AUC [4]: 12700 ng·h/mL; AUC [5]: 4400 ng·h/mL
67 | > 90% | COc1cc(C(F)(F)F)cc2c1nc(C)c1c(C)nc(-c3ccncc3C)n12 | 
68 | > 90% | COc1cc(Cl)c2nc(C)c3c(C)nc(-c4ccncc4C)n3c2c1 | 
69 | > 90% | Cc1cnccc1-c1nc(C)c2c(C)nc3c(Cl)cc(C(F)(F)F)cc3n12 | 
70 | > 90% | COc1cc(F)c2nc(C)c3c(C)nc(-c4cnccc4C)n3c2c1 | 
71 | > 90% | COc1cc(F)c2nc(C)c3c(C)nc(-c4ccncc4C)n3c2c1 | 
72 | > 90% | COc1cc(F)c2nc(C)c3c(C)nc(-c4cccnc4C)n3c2c1 | 
73 | > 90% | Cc1cnccc1-c1nc(C)c2c(C)nc3c(F)cc(OC(F)F)cc3n12 | 
74 | > 90% | Cc1cnccc1-c1nc(C)c2c(C)nc3c(F)cc(OCC(F)(F)F)cc3n12 | 
75 | > 90% | Cc1cnccc1-c1nc(C)c2c(C)nc3c(F)cc(OCC4CC4)cc3n12 | 
76 | > 90% | COc1cc(F)c2nc(C)c3c(C)nc(-c4c(C)nn(C)c4C)n3c2c1 | 
